Active and inactive are the calls of the source.
How the values were obtained:
Beta-galactosidase = Beta-galactosidase (Escherichia coli, UniProt Q8VNN2); experiment: Dose response counterscreen for EBI2 assay utilizing the enzyme, b-galactosidase.; format: functional
[1] = target: T1, Disintegrin and metalloproteinase domain-containing protein 17 (Homo sapiens, UniProt P78536); experiment: exosite inhibitors of ADAM17, dose response, biochemical (AID 743260)
[2] = ADAM10 protease inhibitors, dose response, selectivity assay for ADAM17 exosite inhibitor project, biochemical, FRET peptide substrate, recombinant human ADAM10 (AID 743259);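 note: ADAM10 enzyme cleaving a FRET peptide substrate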
Protein skinhead-1 = target: T2, Protein skinhead-1 (Caenorhabditis elegans, UniProt P34707); format: functional
T2 sequence (P34707 whole entry): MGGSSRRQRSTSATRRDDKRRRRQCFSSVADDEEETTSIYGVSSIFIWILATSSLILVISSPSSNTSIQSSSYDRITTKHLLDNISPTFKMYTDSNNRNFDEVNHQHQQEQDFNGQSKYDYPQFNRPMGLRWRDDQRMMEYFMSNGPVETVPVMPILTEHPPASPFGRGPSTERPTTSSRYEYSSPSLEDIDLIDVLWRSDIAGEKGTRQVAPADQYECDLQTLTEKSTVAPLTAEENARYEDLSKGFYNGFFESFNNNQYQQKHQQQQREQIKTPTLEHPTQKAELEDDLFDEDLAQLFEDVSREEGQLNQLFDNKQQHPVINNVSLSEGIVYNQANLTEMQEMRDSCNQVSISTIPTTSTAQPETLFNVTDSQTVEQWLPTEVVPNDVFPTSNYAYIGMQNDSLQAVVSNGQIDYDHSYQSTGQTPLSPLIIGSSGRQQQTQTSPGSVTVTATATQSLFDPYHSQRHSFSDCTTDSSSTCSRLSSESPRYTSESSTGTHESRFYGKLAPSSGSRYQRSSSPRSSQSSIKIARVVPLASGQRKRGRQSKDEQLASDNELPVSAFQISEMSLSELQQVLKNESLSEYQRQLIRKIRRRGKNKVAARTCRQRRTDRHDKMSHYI

[3] = ADAM10 inhibitors, peptide cleavage, dose response, biochemical, QFRET (AID 743254);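 note: ADAM10 enzyme with the DM2 quenched FRET peptide as substrate; EDANS fluorescence gain as the protease cuts the substrate; inhibitor potency against ADAM10 proteolytic activity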
[4] = target: T1, Disintegrin and metalloproteinase domain-containing protein 17; experiment: ADAM17 protease inhibitors, dose response, counter-screen for ADAM10 exosite inhibitor project, biochemical, quenched FRET substrate (AID 743253)
[5] = target: SWI/SNF-related matrix-associated actin-dependent regulator of chromatin subfamily A member 2 (Homo sapiens, UniProt P51531); experiment: Luminescence-based cell-based high throughput dose response assay to identify activators of the function of SWI/SNF related, matrix associated, actin dependent regulator of chromatin, subfamily a, member 2 (SMARCA2, BRM).; format: functional
[6] = Counterscreen for activators of the function of SWI/SNF related, matrix associated, actin dependent regulator of chromatin, subfamily a, member 2 (SMARCA2, BRM): Luminescence-based cell-based high throughput dose response assay to identify non-selective compounds using the VP16 reporter assay.; format: functional
[7] = inhibitors of intracellular T. cruzi replication, confirmation, NIH3T3 host cells, beta-gal luminescence (AID 2044); format: functional, cell-based;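 note: intracellular parasites grown in NIH/3T3 mouse fibroblasts as host cells; luminescent beta-galactosidase reporter signal from transgenic T. cruzi replicating inside host cells; inhibitors lower the luminescence signal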
[8] = cytotoxicity toward NIH3T3 fibroblasts, dose response, counter-screen, cell-based, ATP luminescence, mouse fibroblasts (AID 2010); format: functional;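 note: cells exposed to compound for about 90 hours before reading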
HEK293 [9] = experiment: NOD1 signaling inhibitors, primary screen, cell-based, luminescence, uHTS (AID 1578); format: functional; conditions: Homo sapiens
HEK293 [10] = experiment: cells; format: functional, cell-based; conditions: Homo sapiens
HEK293 [11] = experiment: cells; format: functional, cell-based; conditions: Homo sapiens; remark: listed apart in the source
[12] = target: Nucleotide-binding oligomerization domain-containing protein 2 (Homo sapiens, UniProt Q9HC29); experiment: NOD2 signaling inhibitors, cell-based, luminescence, uHTS, HEK293 (AID 1566); format: functional
HEK293 [13] = experiment: NOD2 signaling inhibitors in MDP-stimulated cells, cell-based, uHTS, luminescence (AID 2001); format: functional; conditions: Homo sapiens
HEK293 [14] = experiment: cells; format: functional, cell-based; conditions: Homo sapiens; remark: listed apart in the source
Tumor necrosis factor = Tumor necrosis factor (Homo sapiens, UniProt P01375); experiment: TNFa-triggered NF-kB activation inhibitors, SAR follow-up, cell-based, revised (AID 2337); format: functional
[15] = target: T3, Nucleotide-binding oligomerization domain-containing protein 1 (Homo sapiens, UniProt Q9Y239); experiment: NOD1 signaling inhibitors, SAR follow-up, revised (AID 2333); format: functional
T3 sequence (Q9Y239 whole entry): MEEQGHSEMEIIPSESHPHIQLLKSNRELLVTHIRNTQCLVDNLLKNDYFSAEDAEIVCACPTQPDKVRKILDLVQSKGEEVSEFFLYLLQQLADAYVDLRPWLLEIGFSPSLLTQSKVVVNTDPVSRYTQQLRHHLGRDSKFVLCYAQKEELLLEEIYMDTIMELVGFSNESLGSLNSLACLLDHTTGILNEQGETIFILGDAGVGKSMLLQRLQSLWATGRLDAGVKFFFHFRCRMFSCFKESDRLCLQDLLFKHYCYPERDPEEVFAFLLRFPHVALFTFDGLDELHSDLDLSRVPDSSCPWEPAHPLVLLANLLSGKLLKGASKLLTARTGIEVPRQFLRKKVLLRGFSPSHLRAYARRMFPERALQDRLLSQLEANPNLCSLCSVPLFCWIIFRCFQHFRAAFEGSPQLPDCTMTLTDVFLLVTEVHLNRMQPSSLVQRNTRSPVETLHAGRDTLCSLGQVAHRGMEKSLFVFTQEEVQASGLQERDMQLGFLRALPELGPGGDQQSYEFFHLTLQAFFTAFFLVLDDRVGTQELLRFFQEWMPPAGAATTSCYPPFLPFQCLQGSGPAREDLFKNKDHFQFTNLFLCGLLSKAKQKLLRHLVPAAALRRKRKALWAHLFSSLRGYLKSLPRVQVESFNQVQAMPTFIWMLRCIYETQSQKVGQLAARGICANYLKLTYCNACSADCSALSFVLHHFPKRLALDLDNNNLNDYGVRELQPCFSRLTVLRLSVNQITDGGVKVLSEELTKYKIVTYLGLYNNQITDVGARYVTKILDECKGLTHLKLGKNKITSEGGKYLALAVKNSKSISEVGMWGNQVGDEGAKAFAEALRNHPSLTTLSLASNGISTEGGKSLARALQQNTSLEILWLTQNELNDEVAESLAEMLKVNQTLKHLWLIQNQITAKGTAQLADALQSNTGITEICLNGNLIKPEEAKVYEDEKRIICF

Genome polyprotein = Genome polyprotein (dengue virus type 2, UniProt P29990); experiment: Dengue-2 NS5 methyltransferase inhibitors, primary screen, biochemical, confirmation dose response (AID 588689); format: functional
Major prion protein = Major prion protein (Homo sapiens, UniProt P04156); format: functional, cell-based
HEK293 [16] = experiment: cells; conditions: Homo sapiens
[17] = target: T4, High affinity choline transporter 1 (Homo sapiens, UniProt Q9GZV3); experiment: CHT inhibitors, dose response, cell-based, 5-point CRC, membrane potential dye (AID 504840); format: functional
T4 sequence (Q9GZV3 whole entry): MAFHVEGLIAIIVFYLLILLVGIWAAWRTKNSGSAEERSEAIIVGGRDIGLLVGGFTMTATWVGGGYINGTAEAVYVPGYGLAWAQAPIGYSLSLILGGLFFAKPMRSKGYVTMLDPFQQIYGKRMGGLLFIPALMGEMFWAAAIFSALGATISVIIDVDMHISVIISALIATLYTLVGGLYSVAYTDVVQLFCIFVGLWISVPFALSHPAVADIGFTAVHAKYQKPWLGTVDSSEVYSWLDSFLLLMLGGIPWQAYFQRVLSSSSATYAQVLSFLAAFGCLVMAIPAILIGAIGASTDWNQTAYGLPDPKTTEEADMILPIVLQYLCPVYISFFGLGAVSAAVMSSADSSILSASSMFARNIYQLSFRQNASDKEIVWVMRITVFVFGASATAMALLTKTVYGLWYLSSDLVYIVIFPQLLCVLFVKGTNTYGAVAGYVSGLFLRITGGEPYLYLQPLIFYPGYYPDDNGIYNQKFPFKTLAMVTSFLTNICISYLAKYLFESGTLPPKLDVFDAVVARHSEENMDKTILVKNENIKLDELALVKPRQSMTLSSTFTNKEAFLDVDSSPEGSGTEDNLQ

O=C(c1ccc2ccccc2c1)N1CCN(c2ccc(C(F)(F)F)cn2)CC1
IC50 (Beta-galactosidase): > 80 µM (inactive)

Cc1ccc(-c2cc(C(=O)NN=Cc3cccc(OCc4ccccc4)c3)[nH]n2)cc1C
IC50 [1]: > 69.5 µM (inactive)
IC50 [2]: > 69.5 µM (inactive)

O=C(c1cccs1)N1CCc2c([nH]c3ccccc23)C1c1ccc(Cl)cc1 (configuration not stated)
IC50 (Protein skinhead-1): > 100 µM (inactive)
IC50 [3]: > 69.5 µM (inactive)
IC50 [1]: > 69.5 µM (inactive)
IC50 [2]: 32.4 µM (inactive)
IC50 [4]: > 69.5 µM (inactive)

CCC1NC(=O)c2cc3ccccc3cc2-n2c1nc1cc(C)cc(C)c1c2=O (configuration not stated)
IC50 (Beta-galactosidase): > 80 µM (inactive)

COC(=O)Nc1ccc(OCc2ccccc2)cc1
EC50 [5]: > 91.2 µM (inactive)
EC50 [6]: > 91.2 µM (inactive)

CC(C)(C)OC(=O)NCCCC[C@H](NC(=O)c1[nH]cnc1C(=O)NC(c1ccccc1)c1ccccc1)C(=O)OC(C)(C)C
EC50 [7]: 3.48 µM (active)
EC50 [8]: > 60 µM (not active)
IC50 [3]: 10.6 µM (inactive)
IC50 [4]: > 69.5 µM (inactive)

CCC1CO/C(=C(\C(Cl)=C(Cl)Cl)[N+](=O)[O-])N1 (configuration not stated)
IC50 [3]: 14.9 µM (inactive)
IC50 [4]: 27.9 µM (inactive)

COc1cc(C(=O)Nc2scc(-c3ccc(Br)cc3)c2C(=O)O)cc(OC)c1OC
EC50 (HEK293 [9]): 3.97 µM (active)
IC50 (HEK293 [10]): > 20 µM (inactive)
IC50 (HEK293 [11]): > 20 µM (inactive)
EC50 [12]: 13.9 µM (active)
IC50 (HEK293 [13]): 13.2 µM (inactive)
IC50 (HEK293 [14]): 19 µM (active)
IC50 (Tumor necrosis factor): 6.88 µM (active)
IC50 [15]: 5.83 µM (active)
IC50 (Genome polyprotein): 58 µM (active)
IC50 (Major prion protein): 5.71 µM (active)
IC50 (HEK293 [16]): 13.6 µM (active)
IC50 (cells): > 138 µM (inactive)

O=C(CSc1nc2ccccc2s1)N/N=C/c1ccco1
EC50 [5]: > 91.2 µM (inactive)
EC50 [6]: > 91.2 µM (inactive)

O=C(c1cc2ccccc2o1)N1CCN(c2ccccc2Cl)CC1
IC50 (Beta-galactosidase): > 80 µM (inactive)

Cc1csc(NC(=O)CSc2nc(C(C)C)nc3ccccc23)n1
IC50 [17]: 7.94 µM (active)
IC50 (Major prion protein): 2.05 µM (active)
IC50 (cells): 69.1 µM (inactive)

Nc1nc2ccc(Cl)cc2cc1C(=O)NCc1ccccc1Br
IC50 (Major prion protein): 7.35 µM (active)
IC50 (cells): 46.3 µM (inactive)

Source: ChEMBL document CHEMBL1201862, “PubChem BioAssay data set” (2004)
